Patent US20260015350A1, “AZAQUINAZOLINE PAN-KRAS INHIBITORS” (Mirati Therapeutics, Inc., priority 2022, published 2026)

What was measured:
[1] = target: T1, KRas^G12D (Homo sapiens, UniProt P01116, G12D); assay: KRas binding assay (TR-FRET tracer displacement), KRas G12D
T1 construct: Biotinylated KRas (corresponding to amino acids 1-169, produced at Accelegan Inc.); biotin (biotinylated); purchased Accelegan Inc

[2] = target: T2, KRas^G12R (Homo sapiens, UniProt P01116, G12R); assay: KRas binding assay (TR-FRET tracer displacement), KRas G12R
T2 construct: Biotinylated KRas (corresponding to amino acids 1-169, produced at Accelegan Inc.); biotin (biotinylated); purchased Accelegan Inc
T2 sequence (P01116 1-169 isoform P01116-2 G12R): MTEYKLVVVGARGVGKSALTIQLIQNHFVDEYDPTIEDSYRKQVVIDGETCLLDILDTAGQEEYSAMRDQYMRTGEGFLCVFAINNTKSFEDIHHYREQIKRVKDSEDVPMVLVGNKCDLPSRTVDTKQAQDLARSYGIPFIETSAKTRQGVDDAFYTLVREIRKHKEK

[3] = target: T3, KRas^G12V (Homo sapiens, UniProt P01116, G12V); assay: KRas binding assay (TR-FRET tracer displacement), KRas G12V
T3 construct: Biotinylated KRas (corresponding to amino acids 1-169, produced at Accelegan Inc.); biotin (biotinylated); purchased Accelegan Inc
T3 sequence (P01116 1-169 isoform P01116-2 G12V): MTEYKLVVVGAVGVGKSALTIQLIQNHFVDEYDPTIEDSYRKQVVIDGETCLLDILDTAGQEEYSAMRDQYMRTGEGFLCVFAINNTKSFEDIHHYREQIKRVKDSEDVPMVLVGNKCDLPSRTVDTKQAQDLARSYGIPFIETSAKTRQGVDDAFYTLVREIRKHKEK

[4] = test system: KRas-mediated phosphorylation of ERK in AsPC-1 cells; assay: Inhibition of KRas-mediated phosphorylation of ERK (Cisbio HTRF pERK), AsPC-1 cells; assay type: cell-based; conditions: HTRF pERK
Procedure, shortened: (§1)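 Using 6,000 cells per well, compounds are applied for 3 hrs and cells then lysed at 4° C with shaking for 40 mins. Phospho-ERK is measured by HTRF after 2 hrs of lysate incubation with the d2/Cryptate antibody mixture.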

[5] = test system: KRas-mediated phosphorylation of ERK in H727 cells; assay: Inhibition of KRas-mediated phosphorylation of ERK (Cisbio HTRF pERK), H727 cells; assay type: cell-based; conditions: HTRF pERK
Procedure, shortened: as §1

[6] = Homo sapiens, ASPC1, AsPC-1 cells
[7] = Homo sapiens, NCI-H727, H727 cells

T1 sequence (P01116 1-169 isoform P01116-2 G12D): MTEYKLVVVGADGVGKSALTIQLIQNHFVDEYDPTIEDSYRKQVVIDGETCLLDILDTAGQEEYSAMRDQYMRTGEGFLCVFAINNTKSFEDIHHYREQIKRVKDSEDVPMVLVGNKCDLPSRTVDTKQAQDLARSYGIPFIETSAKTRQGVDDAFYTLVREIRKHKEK

## CCc1c(F)ccc2cc(O)cc(-c3ncc4c(N5CCC(N6CCCCS6(=O)=O)C5)nc(OC[C@@]56CCCN5C[C@H](F)C6)nc4c3F)c12 (stereo partly drawn) [Example 655, 2-(1-(7-(8-ethyl-7-fluoro-3-hydroxynaphthalen-1-yl)-8-fluoro-2-(((2R,7aS)-2-fluorotetrahydro-1H-pyrrolizin-7a(5H)-yl)methoxy)pyrido[4,3-d]pyrimidin-4-yl)pyrrolidin-3-yl)-1,2-thiazinane 1,1-dioxide]
[1]
  IC50: 2880 nM
[2]
  IC50: 633 nM
[3]
  IC50: 291 nM
[4]; [6]
  IC50: > 10000 nM
[5]; [7]
  IC50: > 10000 nM

## CCc1c(F)ccc2cc(O)cc(-c3ncc4c(N5CC6(C)CC(CO)(C5)C6)nc(OC[C@@]56CCCN5C[C@H](F)C6)nc4c3F)c12 [Example 565, 5-ethyl-6-fluoro-4-(8-fluoro-2-(((2R,7aS)-2-fluorohexahydro-1H-pyrrolizin-7a-yl)methoxy)-4-(1-(hydroxymethyl)-5-methyl-3-azabicyclo[3.1.1]heptan-3-yl)pyrido[4,3-d]pyrimidin-7-yl)naphthalen-2-ol]
[1]
  IC50: 1160 nM
[2]
  IC50: 1030 nM
[3]
  IC50: 908 nM
[4]; [6]
  IC50: > 10000 nM
[5]; [7]
  IC50: > 10000 nM

## CCc1c(F)ccc2cc(O)cc(-c3ncc4c(N5C[C@H]6CC[C@@]6(O)C5)nc(OC[C@@]56CCCN5C[C@H](F)C6)nc4c3F)c12 [Example 546, (1S,5R)-3-(7-(8-ethyl-7-fluoro-3-hydroxynaphthalen-1-yl)-8-fluoro-2-(((2R,7aS)-2-fluorohexahydro-1H-pyrrolizin-7a-yl)methoxy)pyrido[4,3-d]pyrimidin-4-yl)-3-azabicyclo[3.2.0]heptan-1-ol]
[1]
  IC50: 72 nM
[2]
  IC50: 37 nM
[3]
  IC50: 35 nM
[4]; [6]
  IC50: 1830 nM
[5]; [7]
  IC50: 1010 nM

## CCc1c(F)ccc2cc(O)cc(-c3ncc4c(N5CCC6(CC5)OCCC6O)nc(OC[C@@]56CCCN5C[C@H](F)C6)nc4c3F)c12 (stereo partly drawn) [Example 600, 8-(7-(8-ethyl-7-fluoro-3-hydroxynaphthalen-1-yl)-8-fluoro-2-(((2R,7aS)-2-fluorotetrahydro-1H-pyrrolizin-7a(5H)-yl)methoxy)pyrido[4,3-d]pyrimidin-4-yl)-1-oxa-8-azaspiro[4.5]decan-4-ol]
[1]
  IC50: 5040 nM
[2]
  IC50: 886 nM
[3]
  IC50: 880 nM
[4]; [6]
  IC50: > 10000 nM
[5]; [7]
  IC50: > 10000 nM

## CCc1c(F)ccc2cc(O)cc(-c3ncc4c(NS(=O)(=O)C5CCCNCC5)nc(OC[C@@]56CCCN5C[C@H](F)C6)nc4c3F)c12 (stereo partly drawn) [Example 632, N-(7-(8-ethyl-7-fluoro-3-hydroxynaphthalen-1-yl)-8-fluoro-2-(((2R,7aS)-2-fluorotetrahydro-1H-pyrrolizin-7a(5H)-yl)methoxy)pyrido[4,3-d]pyrimidin-4-yl)azepane-4-sulfonamide]
[1]
  IC50: 2180 nM
[2]
  IC50: 1870 nM
[3]
  IC50: 1200 nM
[4]; [6]
  IC50: > 10000 nM
[5]; [7]
  IC50: > 10000 nM

## CCc1c(F)ccc2cc(O)cc(-c3ncc4c(NCc5cc(C(=O)N(C)C)n([C@H]6C[C@@H](O)C6)n5)nc(OC[C@@]56CCCN5C[C@H](F)C6)nc4c3F)c12 [Example 681, 3-(((7-(8-ethyl-7-fluoro-3-hydroxynaphthalen-1-yl)-8-fluoro-2-(((2R,7aS)-2-fluorohexahydro-1H-pyrrolizin-7a-yl)methoxy)pyrido[4,3-d]pyrimidin-4-yl)amino)methyl)-1-(cis-3-hydroxycyclobutyl)-N,N-dimethyl-1H-pyrazole-5-carboxamide]
[1]
  IC50: 497 nM
[2]
  IC50: 167 nM
[3]
  IC50: 51 nM
[4]; [6]
  IC50: > 10000 nM
[5]; [7]
  IC50: > 10000 nM

## O=C1NS(=O)(=O)NC12CCCN(c1nc(OC[C@@]34CCCN3C[C@H](F)C4)nc3c(F)c(-c4cc(O)cc5ccc(F)c(Cl)c45)ncc13)C2 (stereo partly drawn) [Example 816, 7-(7-(8-chloro-7-fluoro-3-hydroxynaphthalen-1-yl)-8-fluoro-2-(((2R,7aS)-2-fluorotetrahydro-1H-pyrrolizin-7a(5H)-yl)methoxy)pyrido[4,3-d]pyrimidin-4-yl)-2-thia-1,3,7-triazaspiro[4.5]decan-4-one 2,2-dioxide]
[1]
  IC50: 8 nM
[2]
  IC50: 3 nM
[3]
  IC50: 3 nM
[4]; [6]
  IC50: > 10000 nM
[5]; [7]
  IC50: > 10000 nM

## CCc1c(F)ccc2cc(O)cc(-c3ncc4c(N5CCC(N6C(=O)OC7CNCC76)CC5)nc(OC[C@@]56CCCN5C[C@H](F)C6)nc4c3F)c12 (stereo partly drawn) [Example 659, 3-(1-(7-(8-ethyl-7-fluoro-3-hydroxynaphthalen-1-yl)-8-fluoro-2-(((2R,7aS)-2-fluorotetrahydro-1H-pyrrolizin-7a(5H)-yl)methoxy)pyrido[4,3-d]pyrimidin-4-yl)piperidin-4-yl)hexahydro-2H-pyrrolo[3,4-d]oxazol-2-one]
[1]
  IC50: 462 nM
[2]
  IC50: 1610 nM
[3]
  IC50: 582 nM
[4]; [6]
  IC50: > 10000 nM
[5]; [7]
  IC50: > 10000 nM

## CN(C)C(=O)n1cc(CNc2nc(OC[C@@]34CCCN3C[C@H](F)C4)nc3c(F)c(-c4cc(O)cc5ccc(F)c(Cl)c45)ncc23)c(NC(=O)[C@H]2C[C@H](O)C2)n1 [Example 775, 4-(((7-(8-chloro-7-fluoro-3-hydroxynaphthalen-1-yl)-8-fluoro-2-(((2R,7aS)-2-fluorohexahydro-1H-pyrrolizin-7a-yl)methoxy)pyrido[4,3-d]pyrimidin-4-yl)amino)methyl)-3-((1r,3S)-3-hydroxycyclobutanecarboxamido)-N,N-dimethyl-1H-pyrazole-1-carboxamide]
[1]
  IC50: 23 nM
[2]
  IC50: 3 nM
[3]
  IC50: 4 nM
[4]; [6]
  IC50: > 10000 nM
[5]; [7]
  IC50: > 10000 nM

## CCc1c(F)ccc2cc(O)cc(-c3ncc4c(N5CCC[C@@](C)(O)C5)nc(OCC56CC5CCCN(C)C6)nc4c3F)c12 (stereo partly drawn) [Example 828, (3R)-1-(7-(8-ethyl-7-fluoro-3-hydroxynaphthalen-1-yl)-8-fluoro-2-((3-methyl-3-azabicyclo[5.1.0]octan-1-yl)methoxy)pyrido[4,3-d]pyrimidin-4-yl)-3-methylpiperidin-3-ol]
[1]
  IC50: 11400 nM
[2]
  IC50: 21400 nM
[3]
  IC50: 12700 nM
[4]; [6]
  IC50: > 10000 nM
[5]; [7]
  IC50: > 10000 nM

## CCc1c(F)ccc2cc(O)cc(-c3ncc4c(NCc5cc(C(=O)N(C)C)nn5C[C@H]5C[C@@H](O)C5)nc(OC[C@@]56CCCN5C[C@H](F)C6)nc4c3F)c12 [Example 687, 5-(((7-(8-ethyl-7-fluoro-3-hydroxynaphthalen-1-yl)-8-fluoro-2-(((2R,7aS)-2-fluorohexahydro-1H-pyrrolizin-7a-yl)methoxy)pyrido[4,3-d]pyrimidin-4-yl)amino)methyl)-1-((cis-3-hydroxycyclobutyl)methyl)-N,N-dimethyl-1H-pyrazole-3-carboxamide]
[1]
  IC50: 405 nM
[2]
  IC50: 175 nM
[3]
  IC50: 145 nM
[4]; [6]
  IC50: > 10000 nM
[5]; [7]
  IC50: > 10000 nM

## CCc1c(F)ccc2cc(O)cc(-c3ncc4c(N5C[C@@H]6[C@@H](CS(N)(=O)=O)NC(=O)[C@@H]6C5)nc(OC[C@@]56CCCN5C[C@H](F)C6)nc4c3F)c12 [Example 665, 1-((1S,3aS,6aR)-5-(7-(8-ethyl-7-fluoro-3-hydroxynaphthalen-1-yl)-8-fluoro-2-(((2R,7aS)-2-fluorotetrahydro-1H-pyrrolizin-7a(5H)-yl)methoxy)pyrido[4,3-d]pyrimidin-4-yl)-3-oxooctahydropyrrolo[3,4-c]pyrrol-1-yl)methanesulfonamide]
[1]
  IC50: 1980 nM
[2]
  IC50: 1250 nM
[3]
  IC50: 966 nM
[4]; [6]
  IC50: 1240 nM
[5]; [7]
  IC50: 3120 nM

## CCc1c(F)ccc2cc(O)cc(-c3ncc4c(N5CCCC(C6CCNC6=O)C5)nc(OC[C@@]56CCCN5C[C@H](F)C6)nc4c3F)c12 (single isomer, unassigned) [Example 618]
[1]
  IC50: 644 nM
[2]
  IC50: 195 nM
[3]
  IC50: 168 nM
[4]; AsPC-1 cells
  IC50: > 10000 nM
[5]; H727 cells
  IC50: > 10000 nM

## CCc1c(F)ccc2cc(O)cc(-c3ncc4c(N5CCCC(C6CCNC6=O)C5)nc(OC[C@@]56CCCN5C[C@H](F)C6)nc4c3F)c12 (single isomer, unassigned) [Example 619]
[1]
  IC50: 33 nM
[2]
  IC50: 4 nM
[3]
  IC50: 21 nM
[4]; AsPC-1 cells
  IC50: 3620 nM
[5]; H727 cells
  IC50: 1810 nM

## CCc1c(F)ccc2cc(O)cc(-c3ncc4c(N5CCCC(N6C(=O)CCC6=O)C5)nc(OC[C@@]56CCCN5C[C@H](F)C6)nc4c3F)c12 (stereo partly drawn) [Example 638, 1-(1-(7-(8-ethyl-7-fluoro-3-hydroxynaphthalen-1-yl)-8-fluoro-2-(((2R,7aS)-2-fluorotetrahydro-1H-pyrrolizin-7a(5H)-yl)methoxy)pyrido[4,3-d]pyrimidin-4-yl)piperidin-3-yl)pyrrolidine-2,5-dione]
[1]
  IC50: 41 nM
[2]
  IC50: 16 nM
[3]
  IC50: 34 nM
[4]; [6]
  IC50: 930 nM
[5]; [7]
  IC50: 1270 nM

## CCc1c(F)ccc2cc(O)cc(-c3ncc4c(N5CCCn6nc(C(=O)N(C)C)cc6C5)nc(N5CC(C)(N)C5)nc4c3F)c12 [Example 532, 5-(2-(3-amino-3-methylazetidin-1-yl)-7-(8-ethyl-7-fluoro-3-hydroxynaphthalen-1-yl)-8-fluoropyrido[4,3-d]pyrimidin-4-yl)-N,N-dimethyl-5,6,7,8-tetrahydro-4H-pyrazolo[1,5-a][1,4]diazepine-2-carboxamide]
[1]
  IC50: 9 nM
[2]
  IC50: 24 nM
[3]
  IC50: 15 nM
[4]; [6]
  IC50: > 10000 nM
[5]; [7]
  IC50: > 10000 nM
